{
  "source": "paper PMC11134387",
  "about": "“Cancer-Stem-Cell Phenotype-Guided Discovery of a Microbiota-Inspired Synthetic Compound Targeting NPM1 for Leukemia” (JACS Au, 2024)",
  "test_system": "NPM1",
  "assay": "Western blot of NPM1 in MOLM13 cells",
  "assay_type": "cell-based",
  "conditions": "MOLM13, 10 µM",
  "description": "We next studied the impact of UCM-13369 in the genes and/or expression levels of NPM1 and NPM1 C+ pathway components (Figure 4A), including the positive regulation of c-Myc[34] and the negative regulation of FBXW7 and the pro-apoptotic CASP8.[35] […] The inhibition of NPM1 was also observed in MOLM13 cells expressing WT NPM1 (Figure S1B).\n1. Figures S1 -S4and T ab les S1 , S2\nFigure S1. (A) Dose-response curve of UCM-13369 in MCF-7, HCT-116 and IMR90 […]\n(10 µM) in MOLM13 cells at 24 and 48 h. Densitometry values: reduction of 5% and […]\nbetween NSG mice injected with OCI-AML3 cells, with and without UCM-13369 treatment (50 mg/kg). (D) IHC analysis of a poptotic cells in a representative kidney sample from OC I-AML 3 xenograft mice treat ed with DMSO (vehicle, top) vs . UCM-13369 treated mice (50 mg/kg, bottom) mice: H&E ( left) and cleav ed caspase- 3 (right). […]\nProteomic analysis. A supplementary table (Excel file) includes all the data of the proteomic analysis, showing all the proteins identified, not only those ablated in the treated population, but also those found with different expression levels in both populations under study, and even those that were not detected in the control population but were detected in the treated population. Follows the image of a Venn diagram showing the number of proteins detected in each of the pop ulations and the proteins that converg e […]",
  "data": [
    {"smiles": "COc1ccc(C2Cc3[nH]c4ccccc4c3C(CCNCC3CC3)C2N)cc1", "note": "(centres unmarked) [4b, 4-{2-[(Cyclopropylmethyl)amino]ethyl}-2-(4-methoxyphenyl)-2,3,4,9-tetrahydro-1H-carbazol-3-amine]", "values": [
      {"measurement": "Densitometry values (NPM1): reduction", "setting": "24 h", "result": 5, "unit": "%"},
      {"measurement": "Densitometry values (NPM1): reduction", "setting": "48 h", "result": 44, "unit": "%"}
    ]}
  ]
}
